Experimental data as given in paper PMC7356968, “Key-Protease Inhibition Regimens Promote Tumor Targeting of Neurotensin Radioligands” (Pharmaceutics, 2020).

System: WiDr cells expressing the human NTS1R
Test: Cell uptake / internalization assay in WiDr cells
Type: cell-based
Conditions: confluent WiDr cells, 1 h, 37 °C, 250 fmol peptide, non-specific (1 μM NT) subtracted, average ± sd of 3 experiments in triplicate; for internalized fraction vs total added activity: acid wash then lysis
Description: Human colorectal adenocarcinoma WiDr cells (LGC Promochem, Teddington, UK) expressing the human NTS1R [52] were cultured in McCoy’s GLUTAMAX-I (Gibco BRL, Life Technologies, Grand Island, NY, USA) supplemented by 10% (v/v) fetal bovine serum (FBS), 100 U/mL penicillin and 100 μg/mL streptomycin (all from Biochrom KG Seromed, Berlin, Germany). Cells were kept in a controlled humidified atmosphere containing 5% CO2 at 37 °C. Passages were performed every 4–5 days using a trypsin/EDTA (0.05%/0.02% w/v) solution. The overall cell association–internalization of ^99mTc-DT1, ^99mTc-DT5 and ^99mTc-DT6 was assessed in confluent WiDr cells. Briefly, the cells were seeded in six-well plates (~1 × 10^6 cells per well) 24 h before the experiment. Each of ^99mTc-DT1, ^99mTc-DT5 and ^99mTc-DT6 (approximately 150,000 cpm, 250 fmol total peptide in 150 μL of 0.5% BSA/PBS) was added alone (total) or in the presence of 1 μM NT (non-specific). Cells were incubated at 37 °C for 1 h and incubation was interrupted by placing the plates on ice, removing the supernatants and rapid rinsing with ice-cold 0.5% BSA/PBS. Cells were then treated 2 × 5 min with acid wash buffer (2 × 0.6 mL, 50 mM glycine buffer, pH 2.8, 0.1 M NaCl) at room temperature and supernatants were collected (membrane-bound fraction). After rinsing with 1 mL chilled 0.5% BSA/PBS, cells were lyzed by treatment with 1 N NaOH (2 × 0.6 mL) and lysates were collected (internalized fraction). Sample radioactivity was measured in the γ-counter (an automated well-type gamma counter with a NaI(Tl) 3′′ crystal, Canberra Packard Auto-Gamma 5000 series instrument) and total cell-associated (internalized + membrane bound) radioactivity was determined vs. total added activity. Results represent the average values ± sd of 3 experiments in triplicate.

Substance | internalized fraction vs total added activity [%] | NTS1R-specific cell uptake (internalized + membrane bound) vs total added activity [%]
N4-Gly-Arg-Arg-Pro-Tyr-Ile-Leu-OH [^99mTc-DT1, ^99mTc-[N4-Gly^7]NT(7-13), ^99mTc-labeled acyclic tetraamine-coupled NT(7-13) analog DT1] | 6.9 ± 2.1 | 10.1 ± 2.3
N4-βAla-Arg-Dab-Pro-Tyr-Ile-Leu-OH [^99mTc-DT5, ^99mTc-[N4-βAla^7,Dab^9]NT(7-13), ^99mTc-labeled acyclic tetraamine-coupled NT(7-13) analog DT5] | 3.2 ± 0.3 | 3.7 ± 0.3
N4-βAla-Arg-Dab-Pro-Tyr-Tle-Leu-OH [^99mTc-DT6, ^99mTc-[N4-βAla^7,Dab^9,Tle^12]]NT(7-13), ^99mTc-labeled acyclic tetraamine-coupled NT(7-13) analog DT6] | 0.8 ± 0.4 | 1.0 ± 0.4
